“And” between values parts separate entries of the source, which are not always exact repeats. Equal entries are not always repeated. Inconclusive results and toxic doses are left out. Peptide text beside a SMILES is read from it. * marks the point of attachment. Boc = CC(C)(C)OC(=O)*
Tested on: P388 leukemia ip, CD2F1 mice, survival T/C
Assay: NCI In Vivo Anticancer Drug Screen. Data for tumor model P388 Leukemia (intraperitoneal) in CD2F1 (CDF1) mice
Conditions: endpoint: median survival time, higher = longer survival
How it was run: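 Mice carrying the transplanted tumor received test compound or vehicle. Survival was recorded in each group, and the value is the treated-group measurement divided by that of the vehicle-treated control group.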

[1] = dose: 50.0 mg/kg/injection, schedule: Q01DX009 (ip), vehicle: saline
[2] = dose: 60.0 mg/kg/injection, schedule: Q01DX005 (ip), vehicle: saline with Tween-80
[3] = dose: 120.0 mg/kg/injection, schedule: Q01DX005 (ip), vehicle: saline with Tween-80
[4] = dose: 240.0 mg/kg/injection, schedule: Q01DX005 (ip), vehicle: saline with Tween-80
[5] = dose: 25.0 mg/kg/injection, schedule: Q01DX005 (ip), vehicle: saline with Tween-80
[6] = dose: 50.0 mg/kg/injection, schedule: Q01DX005 (ip), vehicle: saline with Tween-80
[7] = dose: 50.0 mg/kg/injection, schedule: Q01DX005 (ip), vehicle: Klucel (hydroxypropylcellulose) (HPC)
[8] = dose: 100.0 mg/kg/injection, schedule: Q01DX005 (ip), vehicle: Klucel (hydroxypropylcellulose) (HPC)
[9] = dose: 200.0 mg/kg/injection, schedule: Q01DX005 (ip), vehicle: Klucel (hydroxypropylcellulose) (HPC)
[10] = dose: 50.0 mg/kg/injection, schedule: Q01DX005 (ip), vehicle: saline
[11] = dose: 100.0 mg/kg/injection, schedule: Q01DX005 (ip), vehicle: saline
[12] = dose: 200.0 mg/kg/injection, schedule: Q01DX005 (ip), vehicle: saline
[13] = dose: 50.0 mg/kg/injection, schedule: Q01DX009 (ip), vehicle: saline with Tween-80
[14] = dose: 100.0 mg/kg/injection, schedule: Q01DX009 (ip), vehicle: saline with Tween-80

## CCCc1[nH]n(-c2ccccc2)c(=O)c1N=Nc1cccc(C(F)(F)F)c1
[1]
  T/C: 93 % of control
dose: 100.0 mg/kg/injection, schedule: Q01DX009 (ip), vehicle: saline
  T/C: 96 % of control
dose: 200.0 mg/kg/injection, schedule: Q01DX009 (ip), vehicle: saline
  T/C: 90 % of control

## O=C(O)CCO/N=C1/Oc2ccc(Cl)cc2C1=O
[2]
  T/C: 103 % of control
[3]
  T/C: 102 % of control
[4]
  T/C: 101 % of control

## CC(=O)C1=C(O)/C(=C\C=C\c2ccccc2)OC1=O
dose: 50.0 mg/kg/injection, schedule: Q01DX009 (ip), vehicle: Klucel (hydroxypropylcellulose) (HPC)
  T/C: 111 % of control
dose: 100.0 mg/kg/injection, schedule: Q01DX009 (ip), vehicle: Klucel (hydroxypropylcellulose) (HPC)
  T/C: 104 % of control
dose: 200.0 mg/kg/injection, schedule: Q01DX009 (ip), vehicle: Klucel (hydroxypropylcellulose) (HPC)
  T/C: 118 % of control

## COC1=CC(=O)c2nc(Cl)ccc2C1=O
dose: 6.25 mg/kg/injection, schedule: Q01DX005 (ip), vehicle: saline with Tween-80
  T/C: 100 % of control
dose: 12.5 mg/kg/injection, schedule: Q01DX005 (ip), vehicle: saline with Tween-80
  T/C: 100 % of control
[5]
  T/C: 108 % of control and 92 % of control
[6]
  T/C: 100 % of control

## Cn1cc(/C=C/C(=O)c2ccccc2[N+](=O)[O-])c2ccccc21
[2]
  T/C: 95 % of control
[3]
  T/C: 89 % of control
[4]
  T/C: 89 % of control

## O=C1/C(=C/N2CCOCC2)CCc2nc(-c3ccccc3)sc21
[7]
  T/C: 109 % of control
[8]
  T/C: 100 % of control
[9]
  T/C: 100 % of control

## O=C1NC(=O)c2c1c1cnn(-c3ccccc3)c1n1cccc21
dose: 7.5 mg/kg/injection, schedule: Q01DX005 (ip), vehicle: saline with Tween-80
  T/C: 96 % of control
dose: 15.0 mg/kg/injection, schedule: Q01DX005 (ip), vehicle: saline with Tween-80
  T/C: 96 % of control
dose: 30.0 mg/kg/injection, schedule: Q01DX005 (ip), vehicle: saline with Tween-80
  T/C: 87 % of control

## CNC(=O)OCC1(OC(=O)NC)OC(COC(=O)NC)(OC(=O)NC)C(OC(=O)NC)C1OC(=O)NC (stereo unspecified)
[10]
  T/C: 104 % of control
[11]
  T/C: 91 % of control
[12]
  T/C: 101 % of control

## CC(=O)OC(C)(C)/C=C/C(=O)[C@](C)(O)[C@H]1[C@H](O)C[C@@]2(C)[C@@H]3CC=C4[C@@H](C[C@H](O)[C@H](O)C4(C)C)[C@]3(C)C(=O)C[C@]12C
dose: 5.0 mg/kg/injection, schedule: Q01DX009 (ip), vehicle: saline with Tween-80
  T/C: 107 % of control
dose: 10.0 mg/kg/injection, schedule: Q01DX009 (ip), vehicle: saline with Tween-80
  T/C: 107 % of control
dose: 20.0 mg/kg/injection, schedule: Q01DX009 (ip), vehicle: saline with Tween-80
  T/C: 112 % of control

## CSc1nc2c(=S)[nH]cnc2s1
dose: 100.0 mg/kg/injection, schedule: Q04DX002 (ip), vehicle: saline with Tween-80
  T/C: 95 % of control
dose: 200.0 mg/kg/injection, schedule: Q04DX002 (ip), vehicle: saline with Tween-80
  T/C: 92 % of control
dose: 400.0 mg/kg/injection, schedule: Q04DX002 (ip), vehicle: saline with Tween-80
  T/C: 92 % of control

## N#CC(C(=O)O)c1ccc([N+](=O)[O-])cc1 (stereo unspecified)
[7]
  T/C: 105 % of control
[8]
  T/C: 96 % of control
[9]
  T/C: 99 % of control

## CN(C)c1noc2c1c(=O)n(C)c(=O)n2C
dose: 60.0 mg/kg/injection, schedule: Q01DX005 (ip), vehicle: saline
  T/C: 105 % of control
dose: 120.0 mg/kg/injection, schedule: Q01DX005 (ip), vehicle: saline
  T/C: 100 % of control
dose: 240.0 mg/kg/injection, schedule: Q01DX005 (ip), vehicle: saline
  T/C: 99 % of control

## Br/C(C=Nc1ccccc1)=C\Nc1ccccc1
dose: 100.0 mg/kg/injection, schedule: Q04DX003 (ip), vehicle: saline with Tween-80
  T/C: 118 % of control
dose: 200.0 mg/kg/injection, schedule: Q04DX003 (ip), vehicle: saline with Tween-80
  T/C: 109 % of control
dose: 400.0 mg/kg/injection, schedule: Q04DX003 (ip), vehicle: saline with Tween-80
  T/C: 104 % of control

## O=C(N/N=C/c1cccc(O)c1)C(=O)N/N=C/c1cccc(O)c1
dose: 50.0 mg/kg/injection, schedule: Q01DX009 (ip), vehicle: water
  T/C: 101 % of control
dose: 100.0 mg/kg/injection, schedule: Q01DX009 (ip), vehicle: water
  T/C: 100 % of control
dose: 200.0 mg/kg/injection, schedule: Q01DX009 (ip), vehicle: water
  T/C: 102 % of control

## CCCC(=O)Nc1ncc([N+](=O)[O-])s1
[13]
  T/C: 95 % of control
[14]
  T/C: 100 % of control
dose: 200.0 mg/kg/injection, schedule: Q01DX009 (ip), vehicle: saline with Tween-80
  T/C: 90 % of control

## Cn1c(C(F)(F)F)nc2nc(Cl)c(Cl)nc21
[5]
  T/C: 108 % of control
[6]
  T/C: 106 % of control
dose: 100.0 mg/kg/injection, schedule: Q01DX005 (ip), vehicle: saline with Tween-80
  T/C: 101 % of control and 106 % of control
dose: 200.0 mg/kg/injection, schedule: Q01DX005 (ip), vehicle: saline with Tween-80
  T/C: 99 % of control and 103 % of control
dose: 400.0 mg/kg/injection, schedule: Q01DX005 (ip), vehicle: saline with Tween-80
  T/C: 101 % of control

## COc1ccc(Nc2c3ccccc3nc3ccccc23)cc1
dose: 12.5 mg/kg/injection, schedule: Q01DX009 (ip), vehicle: saline with Tween-80
  T/C: 111 % of control
[13]
  T/C: 151 % of control
[14]
  T/C: 109 % of control

## CN1C(Cc2ccccc2)N(S(=O)(=O)C2C=CC=CC=C2)CC1(C)C (stereo unspecified)
dose: 100.0 mg/kg/injection, schedule: Q04DX003 (ip), vehicle: saline
  T/C: 101 % of control
dose: 200.0 mg/kg/injection, schedule: Q04DX003 (ip), vehicle: saline
  T/C: 99 % of control
dose: 400.0 mg/kg/injection, schedule: Q04DX003 (ip), vehicle: saline
  T/C: 93 % of control

## [CH3][Ge]1([CH3])[CH]=CC(O)[CH2]1 (stereo unspecified)
[10]
  T/C: 98 % of control
[11]
  T/C: 100 % of control
[12]
  T/C: 100 % of control

## Oc1cc2c(ccc3ccccc32)c2c1CCC2
dose: 6.25 mg/kg/injection, schedule: Q01DX001 (ip), vehicle: Klucel (hydroxypropylcellulose) (HPC)
  T/C: 106 % of control
dose: 12.5 mg/kg/injection, schedule: Q01DX001 (ip), vehicle: Klucel (hydroxypropylcellulose) (HPC)
  T/C: 104 % of control
dose: 25.0 mg/kg/injection, schedule: Q01DX001 (ip), vehicle: Klucel (hydroxypropylcellulose) (HPC)
  T/C: 119 % of control

## CCCN(CCC)c1ncnc2[nH]ncc12
[10]
  T/C: 92 % of control
[11]
  T/C: 92 % of control

## C(=C\c1ccco1)/c1ccnnc1
dose: 12.5 mg/kg/injection, schedule: Q01DX009 (ip), vehicle: saline
  T/C: 97 % of control
dose: 25.0 mg/kg/injection, schedule: Q01DX009 (ip), vehicle: saline
  T/C: 109 % of control
[1]
  T/C: 108 % of control and 97 % of control

## CCN(CC)CCNc1cc(OC)c(C)c2cccnc12
[10]
  T/C: 104 % of control
[11]
  T/C: 109 % of control

## CSCCC(NC(=O)OC(C)(C)C)C(=O)NC(Cc1ccccc1)C(=O)O (stereo not drawn) (Boc-Met-Phe-OH; configuration not given here)
[7]
  T/C: 100 % of control
[8]
  T/C: 100 % of control
[9]
  T/C: 106 % of control

## C[Si]1(C)N(c2ccccc2)[Si](C)(c2ccccc2)N1c1ccccc1
[7]
  T/C: 94 % of control
[8]
  T/C: 111 % of control
[9]
  T/C: 111 % of control

## O=c1[nH]c(Cl)nc2n[nH]c(Br)c12
dose: 100.0 mg/kg/injection, schedule: Q01DX001 (ip), vehicle: saline with Tween-80
  T/C: 98 % of control
dose: 200.0 mg/kg/injection, schedule: Q01DX001 (ip), vehicle: saline with Tween-80
  T/C: 103 % of control

## CCCCNC1C2CCC(C)(C1O)C2(C)C (stereo unspecified)
[7]
  T/C: 97 % of control

## CSc1nc2c(SC)ncnc2s1
dose: 100.0 mg/kg/injection, schedule: Q01DX001 (ip), vehicle: distilled water + alcohol
  T/C: 103 % of control
dose: 200.0 mg/kg/injection, schedule: Q01DX001 (ip), vehicle: distilled water + alcohol
  T/C: 94 % of control
dose: 400.0 mg/kg/injection, schedule: Q01DX001 (ip), vehicle: distilled water + alcohol
  T/C: 98 % of control

## CC(c1ccccc1)/[N+]([O-])=N\O (stereo unspecified)
dose: 3.0 mg/kg/injection, schedule: Q01DX005 (ip), vehicle: Klucel + Tween-80
  T/C: 100 % of control
dose: 6.0 mg/kg/injection, schedule: Q01DX005 (ip), vehicle: Klucel + Tween-80
  T/C: 90 % of control
dose: 12.0 mg/kg/injection, schedule: Q01DX005 (ip), vehicle: Klucel + Tween-80
  T/C: 97 % of control
dose: 24.0 mg/kg/injection, schedule: Q01DX005 (ip), vehicle: Klucel + Tween-80
  T/C: 98 % of control

Reference: PubChem BioAssay AID330 (DTP/NCI, 2004)
